# Laboratory results from patent US11459325B2, “Heterocyclic compound” (Takeda Pharmaceutical Company Limited, priority 2018, dated 2022).
# Test system: GBA mutant human fibroblasts GM008760
# Assay: Glucosylceramide lowering assay
# Type: cell-based
# Conditions: 10 μM test compound, 4 days culture, GlcCer (C16:0)/Cer (C16:0) molar ratio of test compound group relative to DMSO control group x100, smaller value = glucosylceramide lowering; for activity at 10 µM: Homo sapiens, Fibroblast, 96 h
# Method: Glucosylceramide Lowering Assay
# Using GBA mutant human fibroblasts containing mutated glucosylceramidase, the effect of test compounds on glucosylceramide reduction was evaluated.
# GBA mutant human fibroblasts GM008760 (Coriel Institute) were seeded in a 96-well multiwell plate at a density of 5,000 cells/100 μL culture solution/well. GlutaMAX (Thermo Fishcer Scientific), penicillin-streptomycin, and Minimum Essential Media (Thermo Fishcer Scientific) supplemented with 15% fetal bovine serum were used as a culture solution. After culturing for 2 days, a 10 mM DMSO solution of the test compound diluted with the culture solution was added to a 96-well plate by 100 μL to adjust a final test compound concentration to 10 μM. After culturing the cells for 4 days in the presence of the test compound, the culture solution was removed, and the cells adhered to the 96-well plate were washed with a phosphate buffer (ThermoFisher Scientific, product number 14190-144). A solvent composed of 50% ethanol and 50% isopropanol was added to the 96-well plate by 100 μL, and the intracellular lipids were dissolved by pipetting. A solution prepared by dissolving N-Octadecanoyl-D35-psychosine (50 ng/mL, Matreya LLC Inc.) as an internal standard in 50% ethanol and 50% isopropanol was added to the sample in an equal volume, and 2.5 μL of the centrifuged supernatant was used as the test compound group.
# In the same manner as above, a control group was prepared by using DMSO instead of the 10 mM DMSO solution of the test compound.
# For the test compound group and the control group, molar concentrations of glucosylceramide [GlcCer (C16:0)] and ceramide [Cer (C16:0)] were quantified using Rapidfire-MS/MS (API-5000, Turbo-ESI, SRM), and the glucosylceramide lowering effect of the test compound group relative to the control group was evaluated by the following formula. (GlcCer/Cer of test compound group)/(GlcCer/Cer of control group)×100 wherein GlcCer/Cer is the ratio of the molar concentration of glucosylceramide to that of ceramide.
# In this test, when the numerical value obtained by the above calculation formula is small, glucosylceramide is metabolized to ceramide by the test compound, or the synthesis of glucosylceramide from ceramide is inhibited by the test compound, that is, it can be said that the test compound has a glucosylceramide lowering effect.
Compound,activity at 10 µM [%],10 μM GlcCer/Cer (% of control)
"Cc1cn(C)c(=O)c2c(C(=O)N3CC4CC4(c4ccc(Cl)cc4)C3)cn(C)c12 (stereo not drawn) [Example 72, 3-((1-(4-chlorophenyl)-3-azabicyclo[3.1.0]hex-3-yl)carbonyl)-1,5,7-trimethyl-1,5-dihydro-4H-pyrrolo[3,2-c]pyridin-4-one]",38,–
"Cc1cn(C)c(=O)c2c(C(=O)N3CC4CC4(c4cccc(Cl)c4Cl)C3)cn(C)c12 (stereo not drawn) [Example 121, 3-((1-(2,3-dichlorophenyl)-3-azabicyclo[3.1.0]hex-3-yl)carbonyl)-1,5,7-trimethyl-1,5-dihydro-4H-pyrrolo[3,2-c]pyridin-4-one]",68,–
"Cc1cn(C)c(=O)c2c(C(=O)N3CCC3c3ccccc3)cn(C)c12 (stereo not drawn) [Example 83, 1,5,7-trimethyl-3-((2-phenylazetidin-1-yl)carbonyl)-1,5-dihydro-4H-pyrrolo[3,2-c]pyridin-4-one]",49,–
"Cc1cn(C)c(=O)c2c(C(=O)N3CC4CC4(c4ccc(Cl)cc4)C3)cnn12 (stereo not drawn) [Example 307, 3-((1-(4-chlorophenyl)-3-azabicyclo[3.1.0]hex-3-yl)carbonyl)-5,7-dimethylpyrazolo[1,5-a]pyrazin-4(5H)-one]",–,65 % of control
"Cc1cn(C)c(=O)c2c(C(=O)N3CCC(Oc4ccc(OC(F)(F)F)cc4)CC3)cn(C)c12 [Example 288, 1,5,7-trimethyl-3-((4-(4-(trifluoromethoxy)phenoxy)piperidin-1-yl)carbonyl)-1,5-dihydro-4H-pyrrolo[3,2-c]pyridin-4-one]",27,–
"Cc1cn(C)c(=O)c2c(C(=O)N3CCC(c4ccc(Cl)cc4)C3)cn(C)c12 (stereo not drawn) [Example 71, 3-((3-(4-chlorophenyl)pyrrolidin-1-yl)carbonyl)-1,5,7-trimethyl-1,5-dihydro-4H-pyrrolo[3,2-c]pyridin-4-one]",68,–
"Cc1cn(C)c(=O)c2c(C(=O)NC(C)(C)c3ccc(Cl)cc3)cnn12 [Example 306, N-(2-(4-chlorophenyl)propan-2-yl)-5,7-dimethyl-4-oxo-4,5-dihydropyrazolo[1,5-a]pyrazine-3-carboxamide]",51,–
"COc1ccccc1-n1cc(C)c2c(c(C(=O)NC3CCCCC3)cn2C)c1=O [Example 107, N-cyclohexyl-5-(2-methoxyphenyl)-1,7-dimethyl-4-oxo-4,5-dihydro-1H-pyrrolo[3,2-c]pyridine-3-carboxamide]",50,–
"Cn1cc(C(=O)Nc2ccc(N3CCOCC3)cc2)c2c(=O)n(CC#N)ccc21 [Example 292, 5-(cyanomethyl)-1-methyl-N-(4-(morpholin-4-yl)phenyl)-4-oxo-4,5-dihydro-1H-pyrrolo[3,2-c]pyridine-3-carboxamide]",89,–
"Cc1cn(CC#N)c(=O)c2c(C(=O)N3CCC(Oc4ccc(Cl)cc4)CC3)cnn12 [Example 330, {3-[4-(4-chlorophenoxy)piperidine-1-carbonyl]-7-methyl-4-oxopyrazolo[1,5-a]pyrazin-5(4H)-yl}acetonitrile]",68,–
"Cc1cn(C)c(=O)c2c(C(=O)N3CC4CC4(c4ccc(F)cc4)C3)cn(C)c12 (stereo not drawn) [Example 124, 3-((1-(4-fluorophenyl)-3-azabicyclo[3.1.0]hex-3-yl)carbonyl)-1,5,7-trimethyl-1,5-dihydro-4H-pyrrolo[3,2-c]pyridin-4-one]",56,–
"Cc1cn(C)c(=O)c2c(C(=O)N3CC4CC4(c4ccccc4F)C3)cn(C)c12 (stereo not drawn) [Example 126, 3-((1-(2-fluorophenyl)-3-azabicyclo[3.1.0]hex-3-yl)carbonyl)-1,5,7-trimethyl-1,5-dihydro-4H-pyrrolo[3,2-c]pyridin-4-one]",61,–
"Cc1cn(C)c(=O)c2c(C(=O)NCc3ccc(-c4ccc(Cl)cc4)s3)cn(C)c12 [Example 217, N-((5-(4-chlorophenyl)-2-thienyl)methyl)-1,5,7-trimethyl-4-oxo-4,5-dihydro-1H-pyrrolo[3,2-c]pyridine-3-carboxamide]",64,–
"Cc1cn(C)c(=O)n2c(C(=O)NC(C)(C)c3ccc(Cl)cc3)cnc12 [Example 347, N-[2-(4-chlorophenyl)propan-2-yl]-6,8-dimethyl-5-oxo-5,6-dihydroimidazo[1,2-c]pyrimidine-3-carboxamide]",44,–
"Cc1cn(C)c(=O)c2c(C(=O)Nc3cccc(OCc4ccccc4)c3)cn(C)c12 [Example 231, N-(3-(benzyloxy)phenyl)-1,5,7-trimethyl-4-oxo-4,5-dihydro-1H-pyrrolo[3,2-c]pyridine-3-carboxamide]",59,–
"Cc1cn(C)c(=O)c2c(C(=O)NC3(c4ccc(Cl)cc4)CCC3)cn(C)c12 [Example 228, N-(1-(4-chlorophenyl)cyclobutyl)-1,5,7-trimethyl-4-oxo-4,5-dihydro-1H-pyrrolo[3,2-c]pyridine-3-carboxamide]",43,–
"Cc1cn(C)c(=O)c2c(C(=O)N3CCC(c4ccc(Cl)cc4)CC3)cn(C)c12 [Example 258, 3-((4-(4-chlorophenyl)piperidin-1-yl)carbonyl)-1,5,7-trimethyl-1,5-dihydro-4H-pyrrolo[3,2-c]pyridin-4-one]",64,–
"Cc1cn(-c2ccccc2OCC(F)(F)F)c(=O)c2c(C(=O)Nc3ccc(C(C)(C)O)cc3)cnn12 [Example 340, N-[4-(2-hydroxypropan-2-yl)phenyl]-7-methyl-4-oxo-5-[2-(2,2,2-trifluoroethoxy)phenyl]-4,5-dihydropyrazolo[1,5-a]pyrazine-3-carboxamide]",33,–
"CCCCOC1CCCC(NC(=O)c2cn(C)c3c(C)cn(C)c(=O)c23)C1 (stereo not drawn) [Example 57, N-(3-butoxycyclohexyl)-1,5,7-trimethyl-4-oxo-4,5-dihydro-1H-pyrrolo[3,2-c]pyridine-3-carboxamide]",65,–
"Cc1cn(C)c(=O)c2c(C(=O)N3CCC(Oc4ccc(Cl)cc4)CC3)cn(C)c12 [Example 189, 3-((4-(4-chlorophenoxy)piperidin-1-yl)carbonyl)-1,5,7-trimethyl-1,5-dihydro-4H-pyrrolo[3,2-c]pyridin-4-one]",36,–
"Cn1cc(C(=O)Nc2ccc(N3CCOCC3)cc2)c2c(=O)n(-c3ccccc3OCC(F)(F)F)ccc21 [Example 294, 1-methyl-N-(4-(morpholin-4-yl)phenyl)-4-oxo-5-(2-(2,2,2-trifluoroethoxy)phenyl)-4,5-dihydro-1H-pyrrolo[3,2-c]pyridine-3-carboxamide]",36,–
"Cc1cn(-c2ccccc2OCC(F)(F)F)c(=O)c2c(C(=O)Nc3ccc(C4CC4)nc3)cnn12 [Example 341, N-(6-cyclopropylpyridin-3-yl)-7-methyl-4-oxo-5-[2-(2,2,2-trifluoroethoxy)phenyl]-4,5-dihydropyrazolo[1,5-a]pyrazine-3-carboxamide]",32,–
"Cc1cn(C)c(=O)c2c(C(=O)N3CC4CC4(c4ccc(C(F)(F)F)c(F)c4)C3)cn(C)c12 (stereo not drawn) [Example 138, 3-((1-(3-fluoro-4-(trifluoromethyl)phenyl)-3-azabicyclo[3.1.0]hex-3-yl)carbonyl)-1,5,7-trimethyl-1,5-dihydro-4H-pyrrolo[3,2-c]pyridin-4-one]",39,–
"Cc1cn(C)c(=O)c2c(C(=O)N[C@H]3CCC[C@H](c4ccccc4)C3)cn(C)c12 (racemic) [Example 114, 1,5,7-trimethyl-4-oxo-N-[rac-(1S,3S)-3-phenylcyclohexyl]-4,5-dihydro-1H-pyrrolo[3,2-c]pyridine-3-carboxamide]",58,–
"Cc1cn(-c2ccc(F)cc2OCC(F)(F)F)c(=O)c2c(C(=O)Nc3ccc(N4CCOCC4)cc3)cnn12 [Example 336, 5-[4-fluoro-2-(2,2,2-trifluoroethoxy)phenyl]-7-methyl-N-[4-(morpholin-4-yl)phenyl]-4-oxo-4,5-dihydropyrazolo[1,5-a]pyrazine-3-carboxamide]",42,–
"Cc1cn(C)c(=O)c2c(C(=O)NC(C)(C)c3ccc(Cl)cc3)cn(C)c12 [Example 221, N-(2-(4-chlorophenyl)propan-2-yl)-1,5,7-trimethyl-4-oxo-4,5-dihydro-1H-pyrrolo[3,2-c]pyridine-3-carboxamide]",44,–
"Cc1cn(C)c(=O)c2c(C(=O)N3CCC(Oc4cccc(Cl)c4)CC3)cn(C)c12 [Example 188, 3-((4-(3-chlorophenoxy)piperidin-1-yl)carbonyl)-1,5,7-trimethyl-1,5-dihydro-4H-pyrrolo[3,2-c]pyridin-4-one]",65,–
